A short description of data set [1]: Plasma glycerol and triacylglycerol assay, female DIO Wistar rats (COMPOUND A, COMPOUND B). Type of data set: in vivo. The conditions noted are these: obese female Wistar rats; for reduction of plasma concentrations of triacylglycerol / reduction of plasma glycerol levels: 30 mg/kg po once daily for 28 days, vs vehicle. The procedure:
(§1) The experiment was performed on female Wistar rats (originally in the weight range 250-300 g). The rats were housed in pairs in polypropylene cages with solid floors and sawdust bedding at a temperature of 21±4°C and 55±20% humidity. Animals were maintained on a reverse phase light-dark cycle (lights off for 8 h from 09.30-17.30 h) during which time the room was illuminated by red light. Animals had free access to powdered high fat diet (VRF1 plus 20% lard), ground chocolate, ground peanuts and tap water at all times. The three different diets were contained in separate glass feeding jars with aluminum lids with a 3-4 cm hole cut in it to allow access to the food. Animals were housed in pairs for twelve weeks for the induction of obesity. Animals were then housed singly in polypropylene cages with wire grid floors to enable the food intake of each rat to be recorded. Polypropylene trays with cage pads were placed beneath each cage to detect any food spillage. Animals were accustomed to these new conditions (individual housing and the wire-grid floor cages) for at least 14 days before the start of the baseline readings.
Approximately a week before the start of the study, animals were weighed (to the nearest 0.1 g using an electronic top-pan balance) and allocated into 3 weight-matched treatment groups, each containing 9-10 animals. Following a 7 day baseline run-in period, during which the animals were dosed by the appropriate route (eg orally) once a day with vehicle (0.5% hydroxy-propyl-methylcellulose [HPMC]; 1 ml/kg) or the test drug, ie COMPOUND A (10mg and 30 mg/kg po) and COMPOUND B (10 mg and 30 mg/kg po) once daily for 28 days.
Terminal blood samples via cardiac puncture were taken from the animals immediately after death into Sarstedt 4.5 ml lithium-heparin tubes (Cat No. 32.331). Tubes were then centrifuged at 1,500 g for 5 minutes at 4°C and the plasma removed and immediately frozen on dry ice (as 3 aliquots per sample in sealed Eppendorf tubes). Plasma samples were stored at -75°C until required for analysis. All determinations were performed on plasma samples that had been thawed only once.
Plasma triacylglycerol was determined by modification of a discrete assay kit (Sigma Triglyceride determination kit, Cat No. TR0100) to a 96-well format. The kit actually determines liberated glycerol following enzymic hydrolysis of triacylglycerol to free fatty acids and glycerol (1 mole glycerol per mole of triacylglycerol). For this reason, correction for the glycerol concentration originally present in the plasma is required. Plasma samples were, therefore, assayed in the absence (free plasma glycerol) or presence (total triacylglycerol) of lipoprotein lipase. Subtraction of free glycerol from total triacylglycerol concentration then derives the true triacylglycerol concentration.
A 2.5 mg/ml triolein equivalent glycerol standard was obtained from Sigma. The supplied Sigma mM conversion factor for this batch was 1.13 (ie 2.83 mM glycerol). A 10 mg/ml glycerol stock solution was prepared in saline and then diluted in saline to create a series of standard concentrations from 0.218 to 4.34 mM. Standards and plasma samples (undiluted) were pipetted into the 96-well plates as 10 µl additions in duplicate. Assay plates and reagents were preheated at 37°C and the reaction started by adding 200 µl of either the glycerol or total triacylglycerol reagent (reconstituted as per manufacturer's protocol) followed by incubation at 37°C for 5 minutes after which optical density at 540 nm was determined using a Molecular Devices VERSAmax tunable microplate reader. Optical density readings were then transferred to GraphPad Prism and unknown values extrapolated from a linear regression fit to the standard curve. The assay was linear up to the highest glycerol standard employed (4.34 mM). Subtraction of the glycerol concentration in the plasma samples from the total triacylglycerol concentration derived the true triacylglycerol concentration.

The conditions of data set [2]: olanzapine treatment of patients; literature; cited from earlier work.
A short description of data set [3]: Plasma glycerol and triacylglycerol assay, female DIO Wistar rats (COMPOUND C). Type of data set: in vivo. The settings on record: 30 mg/kg po once daily for 28 days. How it is done:
as §1, with “250-300g).” for “250-300 g). The rats were housed in pairs in polypropylene cages with solid floors and sawdust bedding at a temperature of 21±4°C and 55±20% humidity.”, “aluminium” for “aluminum”, “readings. […]” for “readings.”
Plasma triacylglycerol was determined by modification of a discrete assay kit (Sigma Triglyceride determination kit, Cat No. TR0100) to a 96-well format. […]
A 2.5 mg/ml triolein equivalent glycerol standard was obtained from Sigma. […] Optical density readings were then transferred to GraphPad Prism and unknown values extrapolated from a linear regression fit to the standard curve. […]

The nature of data set [4]: Plasma leptin assay, female DIO Wistar rats (COMPOUND C). Type of data set: in vivo. The settings on record: 30 mg/kg po once daily for 28 days. The procedure: as §1, with “250-300g).” for “250-300 g). The rats were housed in pairs in polypropylene cages with solid floors and sawdust bedding at a temperature of 21±4°C and 55±20% humidity.”, “aluminium” for “aluminum”, “readings. […]” for “readings.”
Plasma leptin concentration was determined using Assay Designs rat leptin enzyme immunometric assay kits (Cat No. 900-015) according to the manufacturer's regular protocol. […] Optical density at 450 nm was determined using a Molecular Devices VERSAmax tunable microplate reader and readings transferred to GraphPad Prism. […]

Data set [5] can be described thus: Carcass composition (water, fat, protein, ash), female DIO Wistar rats (COMPOUND C). The settings on record: 30 mg/kg po once daily for 28 days. In kind it is in vivo. The procedure:
as §1, with “250-300g).” for “250-300 g). The rats were housed in pairs in polypropylene cages with solid floors and sawdust bedding at a temperature of 21±4°C and 55±20% humidity.”, “aluminium” for “aluminum”
Approximately a week before the start of the study, animals were weighed (to the nearest 0.1 g using an electronic top-pan balance) and allocated into 2 weight-matched treatment groups, each containing 10 animals. Following a 7 day baseline run-in period, during which the animals were dosed by the appropriate route (eg orally) once a day with vehicle (1% methylcellulose; 1 ml/kg) or the test drug, ie COMPOUND C (30 mg/kg po) once daily for 28 days.
Total ether-extractable fat in the freeze-dried samples was estimated by the Soxhlet principle using a Foss Soxtec HT2 system. The protocol employed was based on the manufacturer's recommendations for meat samples, although freeze-dried samples obviated the necessity for either a fat hydrolysis step or mixing the sample with sand to ensure efficient extraction.
Samples of approximately 1 g were accurately weighed into 26 mm x 60 mm cellulose extraction thimbles which were then plugged with approximately 0.8 g cotton wool. Sample fat was extracted into pre-weighed (including a few boiling chips) standard metal extraction cups using 70 ml of petroleum ether at 40-60°C, a circulator temperature of 115°C and a cooling flow rate of 2 l/min. A boiling stage of 25 min was employed, followed by a 40 min wash stage. A 10 min drying stage sufficed to remove ether from the extraction cups.
Percentage fat in the freeze-dried sample was calculated as follows: % fat = [100 × (final cup weight-initial cup weight)]/sample weight [formula]
Percentage fat in the original sample was calculated using the % water as follows: % fat in original sample = % fat × [(100-%water)/100] [formula]
Total protein in the freeze-dried samples was estimated using the Kjeldahl principle. A micro-Kjeldahl procedure was performed using a Foss 2012 digestion block and a Foss 2200 distilling unit. The protocol used was based on the manufacturer's recommendations for meat samples.
Approximately 0.3 g of freeze-dried sample was accurately weighed into 100 ml digestion tubes (Foss UK Ltd) in racks of 12 tubes. Each rack included at least one blank tube to determine a reagent blank. To each tube was added two Kjeltabs CQ and one Antifoam S tablet followed by 10 ml of 98% sulphuric acid. Samples were digested at 420°C for 1 h to convert protein into ammonium sulphate. Once tubes had cooled, free ammonia was liberated by the addition of an excess of 40% NaOH and steam distilled into 30 ml of 4% boric acid indicator solution. Ammonia was then determined by titration against volumetric grade 0.1 M HCl using a Brand 25 ml digital burette. Nitrogen and protein content of the samples were calculated as follows: % nitrogen = [(sample titration-blank titration) × 0.1401]/sample weight(g)%protein = % nitrogen × 6.25 [formula]
Total ash in the freeze-dried samples was estimated by determining the non-combustible ash remaining after firing samples at high temperatures using a Carbolite OAF 11/1 muffle furnace. […]

Data set [6] is described as follows: Plasma leptin assay, female DIO Wistar rats (COMPOUND A, COMPOUND B). Type of data set: in vivo. The settings on record: obese female Wistar rats. The procedure: as §1, with “Polypropylene trays with cage pads were placed beneath each cage to detect any food spillage.” left out, “readings. […]” for “readings.”
Plasma leptin concentration was determined using Assay Designs rat leptin enzyme immunometric assay kits (Cat No. 900-015) according to the manufacturer's regular protocol. […]
Optical density at 450 nm was determined using a Molecular Devices VERSAmax tunable microplate reader and readings transferred to GraphPad Prism. […]

The nature of data set [7]: Plasma NEFA assay, female DIO Wistar rats (COMPOUND A, COMPOUND B). Type of data set: in vivo. The conditions noted are these: obese female Wistar rats; 30 mg/kg po once daily for 28 days. The procedure: as §1, with “Animals were housed in pairs for twelve weeks for the induction of obesity.” left out, “Polypropylene trays with cage pads were placed beneath each cage to detect any food spillage.” left out, “readings. […]” for “readings.”
Non-esterified (or free) fatty acids (NEFA) were determined by modification of a commercial clinical analyser assay kit (Wako NEFA C ACS-ACOD method) to a 96-well format. […] After exactly 10 minutes, 150 µl of reagent B was added and the plate incubated for a further 10 minutes after which optical density at 540 nm was determined using a Molecular Devices VERSAmax tunable microplate reader. […]

The nature of data set [8]: Feeding study in female DIO Wistar rats (COMPOUND A, COMPOUND B): body weight and food intake. In kind it is in vivo. The settings on record: dietary-induced obese female Wistar rats; 10 mg/kg po once daily; end of the 28 day drug treatment period. The procedure:
as §1
Approximately a week before the start of the study, animals were weighed (to the nearest 0.1 g using an electronic top-pan balance) and allocated into 3 weight-matched treatment groups, each containing 9-10 animals. […]
Food intake and body weight were measured once daily. […]

Where [9] appears, read: 10 mg/kg po once daily for 28 days.

`O=C(NN1CCCCC1)C1=NN(c2ccc(Cl)cc2Cl)[C@@H](c2ccc(Cl)cc2)C1` [COMPOUND A, (R)-N-piperidinyl-5-(4-chlorophenyl)-1-(2,4-dichlorophenyl)-4,5-dihydro-1H-pyrazole-3-carboxamide]: in data set [1] (setting [9]), the “plasma glycerol levels, effect vs vehicle” value is “no significant effect” and the “plasma triacylglycerol concentrations, effect vs vehicle” value was “no significant effect”. For the same compound, in data set [1], the “reduction of plasma concentrations of triacylglycerol” value was determined as 42.0% and the “reduction of plasma glycerol levels” value was 33.6%.

For the compound `Cc1cc2c(s1)Nc1ccccc1N=C2N1CCN(C)CC1` [olanzapine], the “mean increase in body weight” value in data set [2] is ~ 5 kg.

For `O=C(NN1CCCCC1)C1=NN(c2ccc(Cl)cc2Cl)C(c2ccc(Cl)cc2)C1` (racemic) [COMPOUND C, (rac)-N-piperidinyl-5-(4-chlorophenyl)-1-(2,4-dichlorophenyl)-4,5-dihydro-1H-pyrazole-3-carboxamide], in data set [3], the “reduction of plasma glycerol levels compared to the vehicle-treated control group” value amounted to 23.4% and the “reduction of triacylglycerol levels compared to the vehicle-treated control group” value was 37.2%. Also, the “plasma leptin concentrations, change compared to the vehicle-treated control group” value in data set [4] was -48.2%. Further, in data set [5], the “decrease in absolute body fat compared to the vehicle-treated control group” value was 57.7 g, the “decrease in body fat as share of the total weight-loss observed” value was 79.3%, the “decrease in fat mass compared to the vehicle-treated control group” value amounted to 36.9% and the “reduction of total carcass water compared to the vehicle-treated control” value was 11.8 g. The compound also returned a percentage ash content in data set [5] (vehicle 2.77%) of 3.26%. In addition, in data set [5] (vehicle 15.5%), the percentage protein content was 17.1%. Moreover, in data set [5] (vehicle 31.9%), the “fat content as a percentage of carcass weight” value amounted to 24.2%. The “percentage water content of the carcasses” value in data set [5] (vehicle 49.0%) was 54.3%. Also, the “mean body fat mass” value in data set [5] (vehicle 156.3 g) came to 98.6 g. In addition, the “reduction of final carcass weight” value in data set [5] (vs vehicle (473.0 g)) came out at 72.8 g.

As to `O=C(NN1CCCCC1)C1=NN(c2ccc(Cl)cc2Cl)[C@H](c2ccc(Cl)cc2)C1` [COMPOUND B, (S)-N-piperidinyl-5-(4-chlorophenyl)-1-(2,4-dichlorophenyl)-4,5-dihydro-1H-pyrazole-3-carboxamide], in data set [6] (setting [9]), the “decrease of plasma leptin levels compared to the vehicle-treated control group” value was determined as 13.7%. The “decrease of plasma leptin levels compared to the vehicle-treated control group” value in data set [6] (30 mg/kg po once daily for 28 days) is 26.2%. Moreover, the “decrease of plasma NEFA levels compared to the vehicle-treated control group” value in data set [7] turned out to be 24.4%. Also, the “body weights lower than those of the vehicle-treated controls” value in data set [8] is recorded as 4.0%. Further, in data set [1], the “reduction of plasma concentrations of triacylglycerol” value amounted to 52.1% and the “reduction of plasma glycerol levels” value came out at 38.9%.

The values are drawn from EP1946778A1, “Active substance combination for the treatment of diabetes” (Laboratorios del Dr. Esteve S.A., priority 2007, dated 2008).
